The compounds below were run against GTPase KRas (Homo sapiens, UniProt P01116, G12V) (assay: Inhibition of GDP bound KRAS G12V mutant (unknown origin)).
Chain of GTPase KRas (P01116 whole entry G12V): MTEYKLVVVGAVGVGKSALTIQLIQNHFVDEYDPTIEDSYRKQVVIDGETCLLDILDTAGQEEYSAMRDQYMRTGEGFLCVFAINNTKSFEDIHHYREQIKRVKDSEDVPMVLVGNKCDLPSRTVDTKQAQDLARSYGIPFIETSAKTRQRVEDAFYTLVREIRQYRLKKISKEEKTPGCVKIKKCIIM

| IC50 [nM] | SMILES |
| --- | --- |
| 0.246 | C#Cc1c(F)ccc2cc(O)cc(-c3ncc4c(N(C)[C@H]5C[C@@H]5F)nc(OC[C@@]56CCCN5CC(=C)C6)nc4c3F)c12 |
| 0.405 | C#Cc1c(F)ccc2cc(O)cc(-c3ncc4c(N(C)[C@H]5C[C@@H]5F)nc(OCC56CCCN5CC(=C)C6)nc4c3F)c12 (some centres not stated) |
| 0.589 | C#Cc1c(F)ccc2cc(O)cc(-c3ncc4c(N(C)[C@H]5C[C@@H]5F)nc(OC[C@]56CCCN5CC(=C)C6)nc4c3F)c12 |
| 0.689 | [2H]C([2H])([2H])N(c1nc(OC([2H])([2H])C23CCC([2H])([2H])N2C[C@@]([2H])(F)C3)nc2c(F)c(-c3cc(O)cc4ccc(F)c(C#C)c34)ncc12)[C@H]1C[C@@H]1F (some centres not stated) |
| 0.216 | [2H]C([2H])([2H])N(c1nc(OC([2H])([2H])C23CCC([2H])([2H])N2C[C@]([2H])(F)C3)nc2c(F)c(-c3cc(O)cc4ccc(F)c(C#C)c34)ncc12)[C@H]1C[C@@H]1F (some centres not stated) |
| 1.99 | C#Cc1c(F)ccc2cc(N)cc(-c3ncc4c(N(C)[C@H]5C[C@@H]5F)nc(OCC56CCCN5CC(=C)C6)nc4c3F)c12.OCC(F)(F)F (some centres not stated) |
| 0.371 | C#Cc1c(F)ccc2cc(O)cc(-c3ncc4c(N(C)[C@H]5C[C@@H]5F)nc(OCC56CCCN5CC(=C)C6)nc4c3F)c12.OCC(F)(F)F (some centres not stated) |
